Data as given in patent US10041096B2, “Methods and products for generating oils” (The Texas A&M University System, priority 2011, dated 2018).

Columns and labels:
Format in all cases: cell-based
KAS603, a Chlorella sp. [1] = assay: Recovery and measurement of extracellular lipids (hexane sweep, weight, HPLC, TLC) after glyburide treatment; conditions: for Weights of oil recovered from outside cells following glyburide treatment: from 1 L of culture
Description: Glyburide Dosing: After 48 hours, the sodium oxamate time course was complete. A 1 L sample of each culture was collected and treated to recover oil outside the cells (if any) at t=0. The three cultures that had previously been treated with sodium oxamate were subsequently treated with 0.05 mM glyburide. Extracellular lipids in 1 L aliquots of the cultures were collected at 4 hours and 24 hours after the addition of glyburide by hexane sweep; dry cell weights were also calculated on separate aliquots of the culture. Oils recovered were analyzed via TLC and HPLC.
(§1) Algal growth: KAS603, a Chlorella sp. was scaled in F/2 growth medium to ˜300 L in a vertical air lift bioreactor under 12/12 artificial illumination. Growth of the culture was monitored for density, chlorophyll accumulation, and for the presence of invasive species. Growth kinetics were typical and observation of invasive species was limited (sparse bacteria) and typical. The algae were grown under nutrient rich and light limiting conditions.
(§2) Lipid Analyses: TLC—Dried extracts were resuspended in 100 μl of CHCl3. 2.5 μl of each sample was spotted onto silica gel matrix TLC plates (Sigma #2599) and resolved with hexane:diethyl ether:acetic acid (80:20:1). Carotenoids such as β-carotene were visible as yellow bands on the plate, while chlorophyll and chlorophyll breakdown products were visible as green or green/gray bands, respectively. Lipids other than carotenoids and chlorophyll were visualized with iodine vapors. The extracted samples were compared to commercially available lipid standards consisting of 1 μg/μl each of glyceryl trioleate (TAG), 1,3-Diolein (1,3 DAG), 1,2-dioleoyl-rac-glycerol (1,2 DAG), monoolein (MAG), and oleic acid (FFA).
Recovery and Measurement of Extracellular Lipids: Cells that were exposed to the secretion compound glyburide were swept briefly with hexane at room temperature. 50 ml of hexane was added to 1 L samples from each study group, then mixed thoroughly, but gently, by inversion. The cells were re-centrifuged and the hexane layer containing the recovered lipids was transferred to a pre-weighed vial. The hexane was evaporated and the dried lipids were re-weighed. The dried lipids were subsequently analyzed by TLC or HPLC/MS as described.

KAS603, a Chlorella sp. [2] = assay: Culture growth: dry weight density and chlorophyll a during compound treatment; conditions: four 80 L cultures during the treatment period
Description: Algal growth: KAS603, a Chlorella sp. was scaled in F/2 growth medium to ˜300 L in a vertical air lift bioreactor under 12/12 artificial illumination. Growth of the culture was monitored for density, chlorophyll accumulation, and for the presence of invasive species. Growth kinetics were typical and observation of invasive species was limited (sparse bacteria) and typical. The algae were grown under nutrient rich and light limiting conditions. […] Dry Weight Analysis: 10 ml of control and treated culture samples were pelleted via centrifugation at 3000 rpm for 5 minutes. The pellet was washed 1× with dH2O to remove salts. Following a second centrifugation step, the pellet was transferred to a pre-weighed aluminum dish and dried to a constant weight at 26.5° C. Cellular Growth/Density: Cellular growth and density can be characterized by the concentration of chlorophyll a in a sample. Chlorophyll a absorbs light at 435 nm and 680 nm, which can be accurately measured spectrophotometrically. Prior to the dry weight analysis, 10 ml samples were analyzed for absorbance at 435 nm and 680 nm. Based on the established chlorophyll a standard curve, chlorophyll a was calculated and reported as “mg chlorophyll a”.

algal cells = assay: Nile Red fluorescence in growth medium after glyburide; conditions: following treatment with glyburide
P. Parvum [3] = assay: Oil secretion in P. Parvum cultures after glyburide (surface sheen, TLC of supernatant extract)
Description: A control culture of P. Parvum was grown and split into two 500 mL cultures. Glyburide was added to one of the cultures and the culture was shaken for 24 h.
A 1 L P. parvum culture (˜2 million cells/mL) treated with oxamate was split into two subcultures of 400 mL each. Glyburide dissolved in DMSO was added to one subculture. The other subculture received the DMSO carrier (control) that the glyburide had been dissolved in. The two cultures were incubated on the shaker for 24 h and subsequently off the shaker for ˜2 h.
The cells were then pelleted and a 200 mL sample of the culture supernatant was removed from each culture. Each of the removed samples was briefly extracted with nonpolar solvent. The organic extracts were then dried down and the remainder was resuspended in an equal volume of solvent. An equal volume of each (as well as pure TAG as a standard) was loaded on a TLC plate. A chromatogram was developed and stained with iodine vapors. […] Both subcultures had similar amounts of phospholipids (PL). This is likely due to the presence of dead cell membranes in the supernatant extract. Both test samples also had either some monoglycerides (MG) or more likely, the pigment fucoxanthin.

KAS603, a Chlorella sp. [4] = assay: Total lipid extraction with HPLC/TLC lipid profile after sodium oxamate treatment
Description: Sodium Oxamate Dosing: Sodium oxamate was added to three of the four cultures (see FIG. 1). A 1 L sample was collected at time 0, 24 and 48 hours for each culture (a total of 4 samples per time point). The algal cells were pelleted and oils extracted at each time point. Quantitative oil profiles of extracted lipids were generated by TLC and HPLC.
as §1
Total lipid extraction: 1 L samples were pelleted via centrifugation at 3000 rpm for 5 min. The pellets were resuspended in 10 ml of methanol and incubated at 65° C. for 1 h. The methanol was replaced with chloroform and incubated at 50° C. for 10 min. The chloroform was replaced with hexane and incubated at 50° C. for an additional 10 min. The extracts were pooled and distilled. The weights of the dried extracts were recorded prior to resuspension in 100 μl chloroform for TLC analysis, or in 2:1 chloroform:methanol (v/v) to a final concentration of ˜10 mg/mL and loaded for HPLC analysis (Surveyor LC Pump and Autosampler Plus, Thermo Finnegan). A splitter (Analytical Scientific Instruments) was employed to divide the sample 1:20 between a quadrapole MS (Thermo Finnegan MSQ Plus) and an ELSD (Sedere Sedex 75), respectively.
as §2

P. Parvum [5] = assay: Nile Red fluorescence within cells after sodium oxamate; conditions: range of sodium oxamate concentrations
Chlorella sp. = assay: as above; conditions: range of sodium oxamate concentrations
Schizochytrium sp. = assay: as above; conditions: range of sodium oxamate concentrations
P. Parvum [6] = assay: Growth curves of oxamate treated algae (spike-in); conditions: small-scale cultures, oxamate added every three days, vs growth medium only
Description: Small-scale […] P. Parvum cultures were grown and treated with oxamate. Four (A-D in FIG. 13) of the small scale cultures were treated with oxamate stock in growth medium, added every three days, corresponding to the points on the curve. Two (E-F in FIG. 13) of the cultures had only growth medium added.

## COc1ccc(Cl)cc1C(=O)NCCc1ccc(S(=O)(=O)NC(=O)NC2CCCCC2)cc1 [glyburide]
KAS603, a Chlorella sp. [1]; 0.05 mM glyburide for 24 hrs
  β-carotene and chlorophyll outside the cells (HPLC): neither β-carotene nor chlorophyll were detected outside the cells
KAS603, a Chlorella sp. [1]; 0.05 mM glyburide, control group not coloured
  appearance of raw hexane extractions: visibly colored
KAS603, a Chlorella sp. [1]; 4 hours after glyburide
  external oil recovered by hexane sweep (in words): no immediate increases in external oil
KAS603, a Chlorella sp. [1]; 24 hours after glyburide exposure
  external oil recovered by hexane sweep (in words): significantly larger quantities of oil were recovered
KAS603, a Chlorella sp. [1]; T = 0 (at glyburide addition), cultures pre-treated 48 h with 0.3 mM sodium oxamate, listed as GLB1
  Weights of oil recovered from outside cells following glyburide treatment: 0.0003 g
KAS603, a Chlorella sp. [1]; T = 0 (at glyburide addition), cultures pre-treated 48 h with 0.3 mM sodium oxamate, listed as GLB2
  Weights of oil recovered from outside cells following glyburide treatment: 0.0002 g
KAS603, a Chlorella sp. [1]; T = 0 (at glyburide addition), cultures pre-treated 48 h with 0.3 mM sodium oxamate, listed as GLB3
  Weights of oil recovered from outside cells following glyburide treatment: 0.0003 g
KAS603, a Chlorella sp. [1]; T = 4 hours after 0.05 mM glyburide, oxamate pre-treated cultures, listed as GLB1
  Weights of oil recovered from outside cells following glyburide treatment: 0.0002 g
KAS603, a Chlorella sp. [1]; T = 4 hours after 0.05 mM glyburide, oxamate pre-treated cultures, listed as GLB2
  Weights of oil recovered from outside cells following glyburide treatment: 0.0004 g
KAS603, a Chlorella sp. [1]; T = 4 hours after 0.05 mM glyburide, oxamate pre-treated cultures, listed as GLB3
  Weights of oil recovered from outside cells following glyburide treatment: 0.0004 g
KAS603, a Chlorella sp. [1]; T = 24 hours after 0.05 mM glyburide, oxamate pre-treated cultures, listed as GLB1
  Weights of oil recovered from outside cells following glyburide treatment: 0.0016 g
KAS603, a Chlorella sp. [1]; T = 24 hours after 0.05 mM glyburide, oxamate pre-treated cultures, listed as GLB2
  Weights of oil recovered from outside cells following glyburide treatment: 0.0014 g
KAS603, a Chlorella sp. [1]; T = 24 hours after 0.05 mM glyburide, oxamate pre-treated cultures, listed as GLB3
  Weights of oil recovered from outside cells following glyburide treatment: 0.0013 g
KAS603, a Chlorella sp. [1]; glyburide treated groups vs control
  quantity of lipid species of intermediate polarity (between FFA and 1,3DG) in extracellular lipids, TLC: significantly increased
KAS603, a Chlorella sp. [1]; glyburide treated vs untreated, 24 h
  external hydrocarbon (HPLC): An increase in external hydrocarbon
KAS603, a Chlorella sp. [2]
  effect of compound treatment on culture growth: no evidence that compound treatment slowed growth
Algal cells
  Nile Red fluorescence in the growth medium environment: an increase in Nile Red fluorescence
P. Parvum [3]; 500 mL culture, glyburide 24 h, no oxamate, vs control culture
  oily sheen on the culture surface: much more prevalent
P. Parvum [3]; glyburide/oxamate-treated subculture vs DMSO control on oxamate
  lipid (TAG) in culture supernatant extract, TLC: increase the production and/or secretion of lipid, specifically triacylglyceride (TAG)
P. Parvum [3]; oxamate treated culture, 400 mL subculture, glyburide in DMSO 24 h, control had very few swirls
  swirls of secreted oil on the culture surface: a number of swirls on the surface

## NC(=O)C(=O)[O-].[Na+] [sodium oxamate]
KAS603, a Chlorella sp. [4]; 0.3 mM sodium oxamate at 48 h vs untreated control at time 0
  uncharacterized polar lipids (HPLC): increases in uncharacterized polar lipids
KAS603, a Chlorella sp. [4]; 0.3 mM sodium oxamate, treated versus untreated groups
  chlorophyll and total lipids in total extracts (HPLC): increases in chlorophyll and total lipids were detected
KAS603, a Chlorella sp. [4]; 0.3 mM sodium oxamate, up to 48 h
  TAG accumulation in oil extracts: Significant TAG accumulation was not found
KAS603, a Chlorella sp. [4]; oxamate treated cultures vs untreated
  quantity of "other" lipid species: trended higher
KAS603, a Chlorella sp. [4]; oxamate treated vs untreated groups
  undefined lipids (UN) in total extracts by TLC: did not differ between treated and untreated groups
KAS603, a Chlorella sp. [4]; throughout the oxamate treatment phase
  Hydrocarbon (HC) and β-carotene (BC) concentrations, TLC of total extracts: remained consistent
KAS603, a Chlorella sp. [2]
  effect of compound treatment on culture growth: no evidence that compound treatment slowed growth
P. Parvum [5]
  Nile Red fluorescence within cells: increases in Nile Red fluorescence
Chlorella sp.
  Nile Red fluorescence within cells: increases in Nile Red fluorescence
Schizochytrium sp.
  Nile Red fluorescence within cells: increases in Nile Red fluorescence
P. Parvum [6]
  cell concentrations achieved: higher cell concentrations than did the controls
  onset of culture decline: began to decline sooner than the controls
